Measurements: ChEMBL document CHEMBL1201862, “PubChem BioAssay data set” (2004)
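All cell lines were grown in 96-well plates and treated with compound for 48 hours. GI50 = concentration required for 50% inhibition of growth.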 The source made the active and inactive calls. No stated cut-off is given here; in the data, active = GI50 up to about 1.1 µM and inactive = higher.

Experiments:
Assay in all cases: DTP human tumour cell line panel, 48 h
A498 = tested on: A498
A549 = tested on: A549
BT-549 = tested on: BT-549
COLO 205 = tested on: COLO 205
LOX IMVI = tested on: LOX IMVI
MDA-MB-231 = tested on: MDA-MB-231
MDA-N = tested on: MDA-N
Malme-3M = tested on: Malme-3M
RPMI-8226 = tested on: RPMI-8226
RXF 393 = tested on: RXF 393
SF-295 = tested on: SF-295
SK-MEL-28 = tested on: SK-MEL-28
SK-MEL-2 = tested on: SK-MEL-2
SK-MEL-5 = tested on: SK-MEL-5
T47D = tested on: T47D
IGROV-1 = tested on: IGROV-1
NCI-H226 = tested on: NCI-H226
PC-3 = tested on: PC-3
SNB-75 = tested on: SNB-75

Measured: GI50

NS(=O)(=O)c1nnc(NC(=O)/C=C/C(=O)O)s1
inactive: A498 > 100 µM | A549 > 100 µM | BT-549 > 100 µM | COLO 205 > 100 µM | LOX IMVI > 100 µM | MDA-MB-231 > 100 µM | MDA-N > 100 µM | Malme-3M > 100 µM | RPMI-8226 > 100 µM | RXF 393 > 100 µM | SF-295 > 100 µM | SK-MEL-28 > 100 µM | SK-MEL-2 > 100 µM | SK-MEL-5 > 100 µM | T47D > 100 µM

N#Cc1cnn2cc[nH]c12
inactive: A498 > 100 µM | A549 > 100 µM | BT-549 > 100 µM | COLO 205 > 100 µM | IGROV-1 > 100 µM | MDA-MB-231 > 100 µM | MDA-N > 100 µM | NCI-H226 > 100 µM | PC-3 > 100 µM | SF-295 > 100 µM | SK-MEL-28 > 100 µM | SK-MEL-2 > 100 µM | SK-MEL-5 > 100 µM | SNB-75 > 100 µM | T47D > 100 µM

O=C1Nc2ccccc2/C1=C1/Nc2ccccc2/C1=N\OCCOC1OCC(O)C(O)C1O (stereo not given)
inactive: A549 > 100 µM | BT-549 > 100 µM | COLO 205 31 µM | IGROV-1 5.35 µM | LOX IMVI 8.59 µM | MDA-MB-231 > 100 µM | MDA-N > 100 µM | Malme-3M > 100 µM | NCI-H226 69.3 µM | PC-3 27.2 µM | RPMI-8226 > 100 µM | RXF 393 50.6 µM | SF-295 > 100 µM | SK-MEL-28 > 100 µM | SK-MEL-2 3.49 µM | SK-MEL-5 17.9 µM | SNB-75 > 100 µM | T47D 41.1 µM

COC(=O)c1ccccc1C1CN=NC12Cc1cc3c(cc1C2=O)CCC3 (stereo not given)
inactive: A498 > 100 µM | A549 63.4 µM | BT-549 > 100 µM | COLO 205 41.9 µM | IGROV-1 > 100 µM | LOX IMVI 26.9 µM | MDA-MB-231 40.1 µM | MDA-N 40.7 µM | Malme-3M 95.9 µM | NCI-H226 80 µM | PC-3 45.5 µM | RXF 393 > 100 µM | SF-295 54.2 µM | SK-MEL-28 > 100 µM | SK-MEL-2 > 100 µM | SK-MEL-5 21.6 µM | SNB-75 61.4 µM | T47D 56.6 µM

O=c1[nH]c(=O)n(C2CC(O)C(CO)O2)cc1/N=N/NCCc1ccccc1 (stereo not given)
inactive: A549 > 100 µM | BT-549 > 10 µM | COLO 205 > 100 µM | IGROV-1 > 100 µM | LOX IMVI > 100 µM | MDA-MB-231 > 100 µM | MDA-N > 100 µM | Malme-3M > 100 µM | NCI-H226 > 100 µM | PC-3 > 100 µM | RPMI-8226 > 100 µM | RXF 393 > 100 µM | SF-295 > 100 µM | SK-MEL-28 > 100 µM | SK-MEL-5 > 100 µM | SNB-75 > 100 µM | T47D > 100 µM

O=c1c2ccccc2nc(N/N=C/c2ccc([N+](=O)[O-])cc2)n1-c1ccccc1
inactive: A549 15.6 µM | BT-549 18 µM | COLO 205 > 100 µM | IGROV-1 > 100 µM | LOX IMVI 3.08 µM | MDA-MB-231 11.7 µM | MDA-N 57.5 µM | Malme-3M 35.9 µM | NCI-H226 > 100 µM | PC-3 17.3 µM | RPMI-8226 > 100 µM | RXF 393 7.87 µM | SF-295 4.35 µM | SK-MEL-28 10.7 µM | SK-MEL-5 64.3 µM | SNB-75 7.93 µM | T47D 9.59 µM

O=c1c2cc([N+](=O)[O-])cnc2sn1-c1ccc([N+](=O)[O-])cc1
inactive: A549 33 µM | BT-549 40 µM | COLO 205 16.9 µM | IGROV-1 52.5 µM | LOX IMVI 18.5 µM | MDA-MB-231 19.9 µM | MDA-N 87.7 µM | Malme-3M 14.2 µM | NCI-H226 74.6 µM | PC-3 22 µM | RPMI-8226 23.9 µM | SF-295 38.2 µM | SK-MEL-28 82.4 µM | SK-MEL-2 23.8 µM | SK-MEL-5 99.5 µM | SNB-75 38.1 µM | T47D 14.7 µM

CC(CS(=O)(=O)Cc1ccccc1)C(N)=O (stereo not given)
inactive: A498 > 100 µM | A549 > 100 µM | BT-549 > 100 µM | COLO 205 > 100 µM | IGROV-1 > 100 µM | LOX IMVI > 100 µM | MDA-MB-231 > 100 µM | MDA-N > 100 µM | Malme-3M > 100 µM | NCI-H226 > 100 µM | PC-3 > 100 µM | RPMI-8226 > 100 µM | SF-295 > 100 µM | SK-MEL-28 > 100 µM | SK-MEL-2 > 100 µM | SK-MEL-5 > 100 µM | T47D > 100 µM

CC(=O)/C(=C/n1ccc(=O)[nH]c1=S)C(=O)Nc1ccccc1C
inactive: A498 > 100 µM | A549 > 100 µM | BT-549 > 100 µM | COLO 205 > 100 µM | IGROV-1 > 100 µM | LOX IMVI > 100 µM | MDA-MB-231 > 100 µM | MDA-N > 100 µM | NCI-H226 > 100 µM | RXF 393 > 100 µM | SF-295 > 100 µM | SK-MEL-28 > 100 µM | SK-MEL-2 > 100 µM | SK-MEL-5 > 100 µM | SNB-75 > 100 µM | T47D > 100 µM
